Assay results published in ChEMBL document CHEMBL3991601, “The target landscape of clinical kinase drugs” (Science, 2017).
Active and inactive are the calls of the source. For most assays here, no stated cut-off is given here; in the data, actives have a measured Kd and inactives only a lower limit.

Columns and labels:
[1] = biological target: Tyrosine-protein kinase BTK (Homo sapiens, UniProt Q06187)
[2] = biological target: Serine/threonine-protein kinase MRCK gamma (Homo sapiens, UniProt Q6DT37)
Chain of Serine/threonine-protein kinase MRCK gamma (Q6DT37 whole entry): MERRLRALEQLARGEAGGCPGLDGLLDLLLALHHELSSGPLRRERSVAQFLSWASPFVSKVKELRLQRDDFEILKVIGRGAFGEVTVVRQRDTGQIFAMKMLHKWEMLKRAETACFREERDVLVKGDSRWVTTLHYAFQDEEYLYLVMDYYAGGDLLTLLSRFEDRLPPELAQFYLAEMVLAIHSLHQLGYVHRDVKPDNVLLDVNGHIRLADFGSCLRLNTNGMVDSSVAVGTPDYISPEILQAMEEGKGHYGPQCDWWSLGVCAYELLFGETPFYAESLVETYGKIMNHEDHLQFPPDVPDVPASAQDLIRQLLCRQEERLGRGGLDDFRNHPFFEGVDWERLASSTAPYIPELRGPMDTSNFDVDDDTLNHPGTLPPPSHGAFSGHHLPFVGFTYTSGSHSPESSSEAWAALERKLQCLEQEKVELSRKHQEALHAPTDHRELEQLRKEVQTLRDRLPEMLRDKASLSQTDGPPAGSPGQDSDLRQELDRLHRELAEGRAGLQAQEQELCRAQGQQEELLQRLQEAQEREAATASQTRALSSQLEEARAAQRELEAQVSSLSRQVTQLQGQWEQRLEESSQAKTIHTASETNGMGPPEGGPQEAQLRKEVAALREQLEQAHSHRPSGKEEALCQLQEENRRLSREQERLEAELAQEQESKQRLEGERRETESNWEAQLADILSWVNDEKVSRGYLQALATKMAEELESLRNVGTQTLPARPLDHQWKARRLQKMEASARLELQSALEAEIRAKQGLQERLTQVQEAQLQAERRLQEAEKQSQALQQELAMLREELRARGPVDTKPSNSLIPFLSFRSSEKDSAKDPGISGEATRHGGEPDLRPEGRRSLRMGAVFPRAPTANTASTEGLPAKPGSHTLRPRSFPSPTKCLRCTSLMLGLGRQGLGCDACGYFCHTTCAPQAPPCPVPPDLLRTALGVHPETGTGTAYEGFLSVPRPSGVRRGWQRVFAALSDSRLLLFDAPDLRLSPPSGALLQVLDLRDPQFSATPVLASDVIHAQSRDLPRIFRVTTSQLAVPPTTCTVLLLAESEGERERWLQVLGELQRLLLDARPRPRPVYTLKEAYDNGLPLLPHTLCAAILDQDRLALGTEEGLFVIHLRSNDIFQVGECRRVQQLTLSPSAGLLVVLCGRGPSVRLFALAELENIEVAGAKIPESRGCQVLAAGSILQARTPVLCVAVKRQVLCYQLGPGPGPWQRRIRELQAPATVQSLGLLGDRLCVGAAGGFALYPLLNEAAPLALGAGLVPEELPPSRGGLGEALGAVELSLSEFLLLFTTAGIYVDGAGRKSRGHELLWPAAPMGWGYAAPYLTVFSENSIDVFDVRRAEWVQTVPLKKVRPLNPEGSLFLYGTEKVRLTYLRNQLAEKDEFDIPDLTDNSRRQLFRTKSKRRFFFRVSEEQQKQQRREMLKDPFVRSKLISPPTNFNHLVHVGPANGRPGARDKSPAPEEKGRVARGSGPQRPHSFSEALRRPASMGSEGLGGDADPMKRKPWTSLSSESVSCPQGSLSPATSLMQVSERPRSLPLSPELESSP

[3] = biological target: Dual specificity mitogen-activated protein kinase kinase 1 (Homo sapiens, UniProt Q02750)
Chain of Dual specificity mitogen-activated protein kinase kinase 1 (Q02750 whole entry): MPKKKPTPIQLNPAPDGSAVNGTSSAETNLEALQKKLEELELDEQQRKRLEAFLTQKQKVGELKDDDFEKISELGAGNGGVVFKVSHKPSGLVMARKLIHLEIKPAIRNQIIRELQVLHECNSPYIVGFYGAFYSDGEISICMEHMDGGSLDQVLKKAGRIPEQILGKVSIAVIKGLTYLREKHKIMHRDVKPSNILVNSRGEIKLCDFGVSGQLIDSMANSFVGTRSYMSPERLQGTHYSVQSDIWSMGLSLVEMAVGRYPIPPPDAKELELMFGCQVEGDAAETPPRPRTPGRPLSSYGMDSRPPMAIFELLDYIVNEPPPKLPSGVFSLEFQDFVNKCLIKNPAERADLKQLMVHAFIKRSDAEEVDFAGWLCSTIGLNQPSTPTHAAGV

[4] = biological target: Serine/threonine-protein kinase SIK3 (Homo sapiens, UniProt Q9Y2K2)
Chain of Serine/threonine-protein kinase SIK3 (Q9Y2K2 whole entry): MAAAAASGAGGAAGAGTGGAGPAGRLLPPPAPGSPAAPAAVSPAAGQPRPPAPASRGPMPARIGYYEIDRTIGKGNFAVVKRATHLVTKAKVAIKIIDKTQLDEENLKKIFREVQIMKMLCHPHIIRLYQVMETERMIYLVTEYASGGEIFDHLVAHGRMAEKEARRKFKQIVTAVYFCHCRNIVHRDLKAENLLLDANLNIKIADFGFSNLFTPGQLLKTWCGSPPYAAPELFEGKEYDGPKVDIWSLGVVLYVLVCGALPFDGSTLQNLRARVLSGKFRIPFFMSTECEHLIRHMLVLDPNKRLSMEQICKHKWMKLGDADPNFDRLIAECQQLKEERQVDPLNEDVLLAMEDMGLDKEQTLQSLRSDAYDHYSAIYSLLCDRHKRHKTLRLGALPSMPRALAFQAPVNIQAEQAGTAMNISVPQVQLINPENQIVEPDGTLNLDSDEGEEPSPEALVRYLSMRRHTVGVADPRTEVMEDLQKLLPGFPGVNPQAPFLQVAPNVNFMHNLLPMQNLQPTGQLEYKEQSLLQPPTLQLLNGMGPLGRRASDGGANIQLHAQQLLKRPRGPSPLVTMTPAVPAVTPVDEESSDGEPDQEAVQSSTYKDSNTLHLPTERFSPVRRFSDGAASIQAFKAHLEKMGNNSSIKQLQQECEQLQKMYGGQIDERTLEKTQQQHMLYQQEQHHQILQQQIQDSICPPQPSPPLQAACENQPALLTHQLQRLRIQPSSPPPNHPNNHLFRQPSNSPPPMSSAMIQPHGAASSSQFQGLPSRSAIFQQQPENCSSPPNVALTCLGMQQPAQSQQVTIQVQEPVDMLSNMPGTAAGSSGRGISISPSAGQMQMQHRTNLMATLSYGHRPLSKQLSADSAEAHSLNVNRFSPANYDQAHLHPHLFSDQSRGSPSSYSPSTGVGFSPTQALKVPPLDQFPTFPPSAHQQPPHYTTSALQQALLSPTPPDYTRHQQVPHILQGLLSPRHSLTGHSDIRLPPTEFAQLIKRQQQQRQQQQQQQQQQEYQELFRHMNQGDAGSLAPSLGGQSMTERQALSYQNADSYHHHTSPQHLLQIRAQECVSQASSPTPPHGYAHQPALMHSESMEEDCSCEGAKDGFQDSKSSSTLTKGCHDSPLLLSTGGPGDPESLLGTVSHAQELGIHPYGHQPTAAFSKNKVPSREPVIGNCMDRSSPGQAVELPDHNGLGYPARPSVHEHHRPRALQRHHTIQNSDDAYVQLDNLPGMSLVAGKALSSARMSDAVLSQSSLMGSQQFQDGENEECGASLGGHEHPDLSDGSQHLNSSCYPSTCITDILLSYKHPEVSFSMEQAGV

[5] = biological target: T1, Serine/threonine-protein kinase TBK1 (Homo sapiens, UniProt Q9UHD2)
T1 sequence (Q9UHD2 whole entry): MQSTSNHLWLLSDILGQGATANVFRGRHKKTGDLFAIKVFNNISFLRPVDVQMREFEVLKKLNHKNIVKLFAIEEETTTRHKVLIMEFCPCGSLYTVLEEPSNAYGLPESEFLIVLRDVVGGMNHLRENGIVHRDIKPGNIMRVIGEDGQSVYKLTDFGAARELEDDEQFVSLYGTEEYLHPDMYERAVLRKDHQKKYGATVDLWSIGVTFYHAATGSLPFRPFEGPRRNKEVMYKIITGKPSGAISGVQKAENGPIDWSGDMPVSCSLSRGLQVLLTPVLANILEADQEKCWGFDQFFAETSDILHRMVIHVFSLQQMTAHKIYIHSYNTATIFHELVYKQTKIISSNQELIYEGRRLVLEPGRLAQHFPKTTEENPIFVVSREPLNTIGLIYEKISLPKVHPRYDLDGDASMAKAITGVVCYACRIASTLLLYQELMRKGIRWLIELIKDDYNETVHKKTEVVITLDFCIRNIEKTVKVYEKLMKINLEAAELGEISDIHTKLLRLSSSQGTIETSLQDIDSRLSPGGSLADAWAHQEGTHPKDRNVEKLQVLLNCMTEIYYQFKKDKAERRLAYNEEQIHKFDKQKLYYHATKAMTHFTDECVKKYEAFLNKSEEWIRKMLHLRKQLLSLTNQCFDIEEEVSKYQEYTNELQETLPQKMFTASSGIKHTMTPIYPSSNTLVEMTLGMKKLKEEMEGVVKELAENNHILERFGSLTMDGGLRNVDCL

[6] = biological target: T2, Adenine phosphoribosyltransferase (Homo sapiens, UniProt P07741)
T2 sequence (P07741 whole entry): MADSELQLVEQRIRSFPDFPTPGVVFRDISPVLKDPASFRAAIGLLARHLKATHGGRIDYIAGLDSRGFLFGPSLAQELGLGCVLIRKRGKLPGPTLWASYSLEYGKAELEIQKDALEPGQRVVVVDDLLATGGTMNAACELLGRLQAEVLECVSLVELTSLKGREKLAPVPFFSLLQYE

[7] = biological target: Atypical kinase COQ8A, mitochondrial (Homo sapiens, UniProt Q8NI60)
Rab-like protein 3 = biological target: T3, Rab-like protein 3 (Homo sapiens, UniProt Q5HYI8)
T3 sequence (Q5HYI8 whole entry): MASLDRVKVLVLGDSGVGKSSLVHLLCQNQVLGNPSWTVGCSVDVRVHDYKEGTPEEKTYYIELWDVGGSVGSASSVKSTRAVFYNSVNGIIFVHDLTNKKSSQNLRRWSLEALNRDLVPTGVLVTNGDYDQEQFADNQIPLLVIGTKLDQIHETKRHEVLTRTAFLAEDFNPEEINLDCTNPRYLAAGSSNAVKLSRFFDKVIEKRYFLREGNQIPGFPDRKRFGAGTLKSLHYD

Ephrin type-A receptor 5 = Ephrin type-A receptor 5 (Homo sapiens, UniProt P54756)
Glycine--tRNA ligase = biological target: T4, Glycine--tRNA ligase (Homo sapiens, UniProt P41250)
T4 sequence (P41250 whole entry): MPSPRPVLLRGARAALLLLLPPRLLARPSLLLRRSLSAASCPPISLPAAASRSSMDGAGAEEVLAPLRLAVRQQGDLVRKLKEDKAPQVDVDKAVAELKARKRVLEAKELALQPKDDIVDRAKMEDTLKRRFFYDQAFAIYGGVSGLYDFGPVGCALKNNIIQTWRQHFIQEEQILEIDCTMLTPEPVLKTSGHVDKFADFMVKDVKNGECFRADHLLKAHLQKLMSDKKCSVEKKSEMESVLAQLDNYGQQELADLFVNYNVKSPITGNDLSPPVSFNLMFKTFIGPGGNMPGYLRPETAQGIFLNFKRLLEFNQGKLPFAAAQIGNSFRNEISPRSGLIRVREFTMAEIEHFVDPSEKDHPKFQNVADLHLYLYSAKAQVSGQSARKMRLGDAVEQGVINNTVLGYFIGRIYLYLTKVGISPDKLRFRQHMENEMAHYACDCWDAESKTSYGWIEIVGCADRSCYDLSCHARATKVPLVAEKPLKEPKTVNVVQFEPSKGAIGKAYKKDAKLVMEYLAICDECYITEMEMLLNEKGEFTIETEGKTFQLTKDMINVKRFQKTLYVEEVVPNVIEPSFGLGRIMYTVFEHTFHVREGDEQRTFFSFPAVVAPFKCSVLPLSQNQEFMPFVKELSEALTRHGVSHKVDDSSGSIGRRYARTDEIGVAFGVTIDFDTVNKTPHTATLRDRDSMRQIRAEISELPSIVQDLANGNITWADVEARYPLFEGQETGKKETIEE

[8] = biological target: Dual specificity tyrosine-phosphorylation-regulated kinase 1A (Homo sapiens, UniProt Q13627)
[9] = biological target: Protein kinase C beta type (Homo sapiens, UniProt P05771)
Chain of Protein kinase C beta type (P05771 whole entry): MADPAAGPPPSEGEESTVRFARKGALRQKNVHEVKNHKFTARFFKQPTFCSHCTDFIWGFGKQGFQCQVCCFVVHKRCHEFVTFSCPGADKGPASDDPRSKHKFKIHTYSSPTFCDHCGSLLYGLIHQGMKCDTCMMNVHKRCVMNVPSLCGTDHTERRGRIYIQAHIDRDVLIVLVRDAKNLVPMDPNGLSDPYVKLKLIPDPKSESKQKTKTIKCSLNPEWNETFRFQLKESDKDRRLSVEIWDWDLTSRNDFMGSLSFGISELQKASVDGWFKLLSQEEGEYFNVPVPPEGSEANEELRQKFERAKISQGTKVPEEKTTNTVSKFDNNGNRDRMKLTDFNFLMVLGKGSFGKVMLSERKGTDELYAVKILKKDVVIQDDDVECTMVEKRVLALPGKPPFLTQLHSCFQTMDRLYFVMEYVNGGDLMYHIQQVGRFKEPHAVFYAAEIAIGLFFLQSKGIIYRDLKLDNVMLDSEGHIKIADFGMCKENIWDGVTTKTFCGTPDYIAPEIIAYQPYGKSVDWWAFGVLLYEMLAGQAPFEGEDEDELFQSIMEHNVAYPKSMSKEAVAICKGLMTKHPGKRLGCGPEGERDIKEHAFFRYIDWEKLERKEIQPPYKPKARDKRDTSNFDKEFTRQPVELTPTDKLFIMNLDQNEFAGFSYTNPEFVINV

[10] = biological target: Bone morphogenetic protein receptor type-1A (Homo sapiens, UniProt P36894)
Ephrin type-A receptor 2 = Ephrin type-A receptor 2 (Homo sapiens, UniProt P29317)
[11] = biological target: Tyrosine-protein kinase ABL1 (Homo sapiens, UniProt P00519)
[12] = biological target: Tyrosine-protein kinase Fer (Homo sapiens, UniProt P16591)

Chain of Tyrosine-protein kinase BTK (Q06187 whole entry): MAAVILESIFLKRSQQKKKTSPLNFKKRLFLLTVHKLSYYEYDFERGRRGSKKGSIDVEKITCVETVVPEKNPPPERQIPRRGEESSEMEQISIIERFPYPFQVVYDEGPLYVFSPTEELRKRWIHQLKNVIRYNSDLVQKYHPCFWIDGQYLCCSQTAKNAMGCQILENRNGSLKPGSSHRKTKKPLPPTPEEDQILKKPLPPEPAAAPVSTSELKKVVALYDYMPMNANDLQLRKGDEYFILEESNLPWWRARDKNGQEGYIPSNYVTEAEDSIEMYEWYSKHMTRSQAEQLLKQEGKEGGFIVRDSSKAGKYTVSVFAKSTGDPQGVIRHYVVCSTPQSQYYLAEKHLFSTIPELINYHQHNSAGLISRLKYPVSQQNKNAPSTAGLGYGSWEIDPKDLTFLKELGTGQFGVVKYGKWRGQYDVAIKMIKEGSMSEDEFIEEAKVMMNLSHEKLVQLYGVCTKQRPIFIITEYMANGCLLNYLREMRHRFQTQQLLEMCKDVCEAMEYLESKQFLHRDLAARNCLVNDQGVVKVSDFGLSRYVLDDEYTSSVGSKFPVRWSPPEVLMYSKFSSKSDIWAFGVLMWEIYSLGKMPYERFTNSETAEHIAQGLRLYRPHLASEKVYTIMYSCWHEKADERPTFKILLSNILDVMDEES

SMILES | Kd [1] | Kd [2] | Kd [3] | Kd [4] | Kd [5] | Kd [6] | Kd [7] | Kd (Rab-like protein 3) | Kd (Ephrin type-A receptor 5) | Kd (Glycine--tRNA ligase) | Kd [8] | Kd [9] | Kd [10] | Kd (Ephrin type-A receptor 2) | Kd [11] | Kd [12]
C[C@@H](Oc1cc(C(=O)Nc2ccc(C(=O)N3CCN(C)CC3)cc2)nnc1N)c1c(Cl)ccc(F)c1Cl | > 30 µM (inactive) | > 30 µM (inactive) | > 30 µM (inactive) | > 30 µM (inactive) | > 30 µM (inactive) | > 30 µM (inactive) | > 30 µM (inactive) | > 30 µM (inactive) | > 30 µM (inactive) | > 30 µM (inactive) | > 30 µM (inactive) | > 30 µM (inactive) | > 30 µM (inactive) | > 30 µM (inactive) | > 30 µM (inactive) | > 30 µM (inactive)
C[C@H]1CNCCCN1S(=O)(=O)c1cccc2cncc(F)c12 | > 30 µM (inactive) | > 30 µM (inactive) | > 30 µM (inactive) | > 30 µM (inactive) | > 30 µM (inactive) | > 30 µM (inactive) | > 30 µM (inactive) | > 30 µM (inactive) | > 30 µM (inactive) | > 30 µM (inactive) | > 30 µM (inactive) | > 30 µM (inactive) | > 30 µM (inactive) | > 30 µM (inactive) | > 30 µM (inactive) | > 30 µM (inactive)
CCNC(=O)C#Cc1ccc2c(c1)NC(=O)/C2=C(\Nc1ccc(CN(C)C)cc1)c1ccccc1 | 0.588 µM (active) |  |  | > 30 µM (inactive) | 0.759 µM (active) | > 30 µM (inactive) | > 30 µM (inactive) | > 30 µM (inactive) | > 30 µM (inactive) | > 30 µM (inactive) | > 30 µM (inactive) | > 30 µM (inactive) | > 30 µM (inactive) | > 30 µM (inactive) | 1.59 µM (active) | 0.385 µM (active)
COc1cc(Nc2ncc3c(n2)-c2ccc(Cl)cc2C(c2c(F)cccc2OC)=NC3)ccc1C(=O)O [ALISERTIB] |  | > 30 µM (inactive) |  | > 30 µM (inactive) |  | > 30 µM (inactive) | > 30 µM (inactive) | > 30 µM (inactive) | > 30 µM (inactive) | > 30 µM (inactive) |  | > 30 µM (inactive) | > 30 µM (inactive) |  |  | 
CNC(=O)c1ccccc1Sc1ccc2c(/C=C/c3ccccn3)n[nH]c2c1 [AXITINIB] |  |  |  |  |  | > 30 µM (inactive) |  |  |  | > 30 µM (inactive) |  | > 30 µM (inactive) |  |  |  | 
Cn1cc(C2=C(c3cn(C4CCN(Cc5ccccn5)CC4)c4ccccc34)C(=O)NC2=O)c2ccccc21 [ENZASTAURIN] |  |  |  |  |  | > 30 µM (inactive) |  | > 30 µM (inactive) |  | > 30 µM (inactive) |  |  |  |  |  | 
Cc1[nH]c(/C=C2\C(=O)Nc3ccccc32)c(C)c1CCC(=O)O [ORANTINIB] |  | > 30 µM (inactive) | 3.43 µM (active) | > 30 µM (inactive) | 1.98 µM (active) |  | > 30 µM (inactive) | > 30 µM (inactive) | > 30 µM (inactive) | > 30 µM (inactive) |  | > 30 µM (inactive) | > 30 µM (inactive) |  |  | 
CCCCCCCCCCCCCCCCCCOP(=O)([O-])OC1CC[N+](C)(C)CC1 [PERIFOSINE] | > 30 µM (inactive) |  | > 30 µM (inactive) | > 30 µM (inactive) | > 30 µM (inactive) | > 30 µM (inactive) | > 30 µM (inactive) | > 30 µM (inactive) | > 30 µM (inactive) | > 30 µM (inactive) | > 30 µM (inactive) | > 30 µM (inactive) | > 30 µM (inactive) | > 30 µM (inactive) | > 30 µM (inactive) | > 30 µM (inactive)
CNC(=O)c1cc(Oc2ccc(NC(=O)Nc3cc(C(C)(C)C)nn3-c3ccc4ncccc4c3)c(F)c2)ccn1 [REBASTINIB] | 1.22 µM (active) | > 30 µM (inactive) | > 30 µM (inactive) | > 30 µM (inactive) | > 30 µM (inactive) |  | > 30 µM (inactive) | > 30 µM (inactive) | > 30 µM (inactive) | > 30 µM (inactive) | > 30 µM (inactive) | > 30 µM (inactive) | > 30 µM (inactive) | > 30 µM (inactive) |  | 
N#CC[C@H](C1CCCC1)n1cc(-c2ncnc3[nH]ccc23)cn1 [RUXOLITINIB] |  |  |  |  |  |  |  |  |  | > 30 µM (inactive) |  | > 30 µM (inactive) |  |  |  | 
Cc1cc(Nc2ncnc3ccc(NC4=NC(C)(C)CO4)cc23)ccc1Oc1ccn2ncnc2c1 [TUCATINIB] | > 30 µM (inactive) | > 30 µM (inactive) | > 30 µM (inactive) | > 30 µM (inactive) | > 30 µM (inactive) |  | > 30 µM (inactive) | > 30 µM (inactive) | > 30 µM (inactive) | > 30 µM (inactive) | > 30 µM (inactive) | > 30 µM (inactive) | > 30 µM (inactive) | > 30 µM (inactive) | > 30 µM (inactive) | > 30 µM (inactive)
C[C@@H](N)c1ccc(C(=O)Nc2ccnc3[nH]ccc23)cc1 [Y-39983] | > 30 µM (inactive) |  | > 30 µM (inactive) | 0.071 µM (active) | > 30 µM (inactive) | > 30 µM (inactive) | > 30 µM (inactive) | > 30 µM (inactive) | > 30 µM (inactive) | > 30 µM (inactive) | > 30 µM (inactive) | 6.03 µM (active) | 0.34 µM | > 30 µM (inactive) | > 30 µM (inactive) | > 30 µM (inactive)

Results, then the compound that gave them:

Kd [1] | Kd [2] | Kd [3] | Kd [4] | Kd [5] | Kd [6] | Kd [7] | Kd (Rab-like protein 3) | Kd (Ephrin type-A receptor 5) | Kd (Glycine--tRNA ligase) | Kd [8] | Kd [9] | Kd [10] | Kd (Ephrin type-A receptor 2) | Kd [11] | Kd [12] | SMILES
 |  |  |  |  | > 30 µM (inactive) |  | > 30 µM (inactive) |  | > 30 µM (inactive) |  | > 30 µM (inactive) |  |  |  |  | C[C@@H](Oc1cc(-n2cnc3ccc(CN4CCN(C)CC4)cc32)sc1C(N)=O)c1ccccc1C(F)(F)F [GSK-461364]
 | > 30 µM (inactive) |  |  |  | > 30 µM (inactive) | 3.05 µM | > 30 µM (inactive) | > 30 µM (inactive) | > 30 µM (inactive) |  | > 30 µM (inactive) |  |  |  |  | NC(=O)c1c(OCc2c(F)cc(Br)cc2F)nsc1NC(=O)NCCCCN1CCCC1 [OSI-632]
 | > 30 µM (inactive) |  | 9.65 µM (active) |  | > 30 µM (inactive) | > 30 µM (inactive) | > 30 µM (inactive) | > 30 µM (inactive) | > 30 µM (inactive) |  | > 30 µM (inactive) | > 30 µM (inactive) |  |  |  | CC(=O)NCC(=O)N1[C@@H]2CC[C@H]1c1ccc(Nc3ncc(C(F)(F)F)c(NC4CCC4)n3)cc12 [PF-03814735]
 |  |  |  |  | > 30 µM (inactive) |  | > 30 µM (inactive) |  | > 30 µM (inactive) |  | > 30 µM (inactive) |  |  |  |  | O=C(NOCCO)c1cc(CN2OCCCC2=O)c(F)c(F)c1Nc1ccc(I)cc1F [RO-4987655]
